Measurements reported in patent publication US20090270496A1, “ANTIFUNGAL COMPOUNDS” (priority 2007, published 2009).

Tests used:
[1] = tested on: cytoplasmic Ca2+ in S. cerevisiae cells (FY70 [pEVP11/AEQ]); assay: Aequorin luminescence, yeast cytoplasmic Ca2+; type: cell-based, Saccharomyces cerevisiae; details: 50 μM added at t=30 sec, monitored […]; note: monitored 3.5 min
Procedure: Cells were transformed with pEVP11/AEQ, which constitutively expresses apoaequorin directed to the cytoplasm (Batiza et al., 1996) Transformed cells were grown to mid-exponential phase in SD-leu to maintain the plasmid. 1.5×10^7 cells were pelleted and resuspended in fresh SD-leu medium containing 5.9 μM coelenterazine for 1 hour to allow the cofactor to diffuse into cells and bind the apoaequorin. Cells were pelleted again and resuspended in fresh SD-leu (“SD” buffer) and 2.5×10^6 cells per well aliquoted to a microtiter plate for luminescence measurement. Luminescence was measured in an EG&G Berthold luminometer using Winglow monitoring and analysis software.
S. cerevisiae cells were prepared for aequorin assays as just described.

Gi2 = Gi2 (Homo sapiens, UniProt P04899); details: reconstituted Gi2, in vitro; read-out: EC50, activation of GTPase; cited from earlier work
Gi2, sequence (P04899 2-355 limits assumed): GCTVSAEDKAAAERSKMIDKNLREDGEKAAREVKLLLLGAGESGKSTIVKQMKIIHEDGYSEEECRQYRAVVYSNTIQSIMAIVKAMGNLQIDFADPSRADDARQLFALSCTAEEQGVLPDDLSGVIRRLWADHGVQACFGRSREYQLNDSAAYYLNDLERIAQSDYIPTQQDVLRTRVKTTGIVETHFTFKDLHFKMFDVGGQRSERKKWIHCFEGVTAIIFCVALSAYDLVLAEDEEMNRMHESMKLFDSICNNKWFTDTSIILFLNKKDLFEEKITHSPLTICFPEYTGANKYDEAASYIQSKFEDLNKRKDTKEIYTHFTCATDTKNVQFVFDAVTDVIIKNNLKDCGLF

HL-60 cells = details: in the presence but not in the absence of extracellular Ca2+; cited from earlier work
[2] = cited from earlier work
[3] = during chronic treatment; cited from earlier work

| SMILES | increase in RLUs (cytoplasmic Ca2+) [1] | increase in RLUs (cytoplasmic Ca2+) ([1]; listed as amiodarone) | EC50 (Gi2) | cytosolic Ca2+ concentration (HL-60 cells) | ataxia, patients affected ([2]; especially during loading doses) | pulmonary fibrosis or pneumonitis fatal, cases ([2]; human, in vivo) | plasma ratio of metabolite to parent compound [3] |
| --- | --- | --- | --- | --- | --- | --- | --- |
| CCCCc1oc2ccccc2c1C(=O)c1cc(I)c(OCCN(CC)CC)c(I)c1 [Amiodarone, amiodarone] | immediate and very large increase | immediate and huge increase | 50 µM | increased | 20-40% | about 10% |  |
| CCCCc1oc2ccccc2c1C(=O)c1cc(I)c(OCCNCC)c(I)c1 [desethylamiodarone] |  |  |  |  |  |  | approximately one |
